The text below walks through data of patent publication US6495673B1, “Method for isolating the DNA encoding an enzyme” (Medical Research Council, priority 1996, dated 2002).

No end group written: not given here. *: point of attachment. Biotin = O=C1N[C@H]2[C@H](CS[C@H]2CCCCC(=O)*)N1 Bounds are passed on as bounds.

One experiment deals with calmodulin (Homo sapiens, UniProt P0DP23). As to conditions: cited from earlier work.
In experiment [1] the target is T1, calmodulin-tagged phage DN323 (Homo sapiens, UniProt P0DP23).
T1 construct: made in house; host or cells: E. coli (phage production)
Nature of the experiment: Competition assay of (calmodulin-tagged phage)/(biotin-peptide) complex with 1000-fold excess unlabeled peptide, ELISA. The format is binding. As to conditions: 1000-fold molar excess of non-biotinylated peptide. The protocol: A 10^−8 M solution of a biotinylated calmodulin-binding peptide ([…] or […]; Montigiani et al., 1996) was added to calmodulin-tagged phage preparations (10^12 transforming units/ml) in TBSC and incubated for 10 minutes. To the resulting mixture, aliquoted in different tubes, unlabeled […] peptide in 1000-fold molar excess (10^−5 M) was added at different times. The fraction of phage particles in which the biotinylated peptide had been replaced by the unlabeled peptide was then determined by ELISA as described above.
The results of a competition assay of (calmodulin-tagged phage DN323)/(biotin-peptide) complex with a 1000-fold molar excess of non-biotinylated calmodulin-binding peptide, detected by ELISA are illustrated in FIG. 5. Squares: […]; circles, CAAARAXKNFIAVSAANRFKKIS.

Experiment [2] concerns LUCK+ peptide substrate / GST-SH2 fusion. Nature of the experiment: Selection of lck tyrosine kinase phage by capture of phosphorylated peptide on GST-SH2. The class given is biochemical, murine. As to conditions: LUCK- peptide instead of LUCK+, all three phages. The protocol:
As affinity capture reagent a GST-fusion of the N-terminal SH2 domain of PI 3-kinase was used, subcloned in pGEX vector (Pharmacia) and affinity-purified on glutathione agarose. The GST-SH2 fusion was coated on Nunc Immunotubes (4 ml; 100 μg/ml in PBS) at room temperature overnight. The tubes were then washed and incubated for 2 hours with 3% BSA in phosphorylation buffer (30 mM HEPES, pH 7.4, 150 mM NaCl, 12 mM MgCl2, 1 mM sodium vanadate, 1 mM CaCl2).
ATP was then added to a final concentration of 100 μM. After one minute, the mixtures were loaded onto separate GST-SH2-coated immunotubes and incubated for 30 minutes. The tubes were then washed 10 times with TBS +1 mM CaCl2 (TBSC) +0.1% Tween-20 and 10 times with TBSC. The phage bound to the tube via the phosphorylated peptide was specifically eluted with 1 ml 10 mM EGTA in PBS (Neri et al., 1995) that causes dissociation of the peptide ligand from calmodulin present in the fusion protein presented on the phage.
The eluted phage was used to infect exponentially growing TG1 E. coli cells according to standard procedures (Nissim et al., 1994), then plated on selective ampicillin-glucose-TY plates. Ampicillin-resistant transformants were counted and used to calculate the titre of the phage recovered in the selection procedure.

The target in experiment [3] is T1, calmodulin-tagged phage DN323. In words: Stability of (calmodulin-tagged phage)/peptide complex to PEG precipitation, ELISA. As to conditions: 20% PEG 6000 + 2.5M NaCl, 1 hour on ice. The class given is binding. On the procedure:
Stability of (calmodulin-tagged phage)/peptide complexes to PEG precipitation was checked as follows. A 10^−8M solution (final concentration) of a biotinylated calmodulin-binding peptide […] was added to 1 ml of calmodulin-tagged phage (10^12 transforming unit/ml) in TBSC and incubated for 10 minutes. To this solution, 20% polyethyleneglycol (Mw6000) +2.5M NaCl was added (200 μl ) and the resulting mixture was incubated on ice for 1 hour, then centrifuged on a bench centrifuge (13,000 rpm; 5 minutes).
The pellet was resuspended in 1 ml of TBSC. The titre of the phage solutions before and after PEG precipitation were then determined. The fraction of phage particles that were still peptide-bound after the PEG precipitation procedure was evaluated by ELISA, using a streptavidin-coated plate (see above).
The difference in ELISA binding activity between the sample before (1) and after (2) PEG precipitation corresponds to a small loss in phage titre, as determined by E. coli infection and titration. In sample 3, 2% milk in TBSC was used instead of phage.

Consider CAAARWKKAFIAVSAANRFKKIS, for which the Kd at calmodulin is 2.2 pM. Moreover, in experiment [1], the koff is reported as < 10^−1 s^−1 and the “time for which complex with calmodulin-tagged phage is stable” value is on record as “more than 2 hours”. For the substance EPQFEEIGAARWKKAFIAVSNMFKKIS [LUCK-], the phage titres recovered result in experiment [2] was “low phage titres”.

In the case of Biotin-CAAARWKKAFIAVSAANRFKKIS, the “stability of calmodulin/peptide complex upon PEG precipitation” value in experiment [3] is given as “stable even after PEG precipitation”.
